Results published in BindingDB's records for doi:10.1021/jm991079p (University of Heidelberg, 2000).

Key:
[1] = target: Sigma-2 receptor (TMEM97) (Rattus norvegicus); assay: Binding affinity was measured on Sigma receptor type 2 with rat liver membranes and [3H]- DTG as ligand.
[2] = target: Sigma non-opioid intracellular receptor 1 (Cavia porcellus) (UniProt Q60492); assay: Binding affinity was measured on Sigma receptor type 1 with guinea pig membranes and [3H]- pentazocine as ligand.
Sigma non-opioid intracellular receptor 1 (Cavia porcellus), sequence (Q60492 whole entry, looked up): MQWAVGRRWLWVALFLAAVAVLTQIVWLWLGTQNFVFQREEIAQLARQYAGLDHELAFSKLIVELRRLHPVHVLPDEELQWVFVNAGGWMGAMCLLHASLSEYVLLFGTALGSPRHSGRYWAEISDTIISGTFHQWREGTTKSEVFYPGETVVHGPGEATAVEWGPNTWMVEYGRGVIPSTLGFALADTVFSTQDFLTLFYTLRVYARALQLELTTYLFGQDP

SMILES | Ki [1] [nM] | Ki [2] [nM]
CCN(CC)CCNC(=O)c1cc(I)ccc1OC [N-(2-Diethylamino-ethyl)-5-iodo-2-methoxy-benzamide] | 1020 | 92
CCN(CC)CCNC(=O)c1ccc(OC)c(I)c1 [N-(2-Diethylamino-ethyl)-3-iodo-4-methoxy-benzamide (IMBA)] | 6520 | 249
CCN(CC)CCNC(=O)c1cc(Br)c(N)c(I)c1OC [4-Amino-5-bromo-N-(2-diethylamino-ethyl)-3-iodo-2-methoxy-benzamide] | 2350 | 278
CCN(CC)CCNC(=O)c1cc(I)c(N)cc1OC | 21400 | 484
CCN(CC)CCNC(=O)c1cc(I)c(NC(C)=O)cc1OC [4-acetamido-N-(2-(diethylamino)ethyl)-5-iodo-2-methoxybenzamide] | 115000 | 5190
